Measurements from patent publication EP3138561A1 (priority 2014, dated 2015).
Where two headings read alike, the source gives them in different places.

Experiments:
Burkholderia cepacia [1] = type: cell-based
Burkholderia multivorans = type: cell-based
Burkholderia pyrrocinia = type: cell-based
Burkholderia cenocepacia = type: cell-based
Burkholderia mallei = type: cell-based
[2] = test system: Burkholderia vietnamiensis; type: cell-based
Burkholderia dolosa = type: cell-based
Burkholderia gladioli = type: cell-based
Burkholderia stabilis = type: cell-based
Burkholderia anthina = type: cell-based
Burkholderia ambifaria = type: cell-based
[3] = test system: Burkholderia pseudomallei; type: cell-based
[4] = white crystalline powder; cited from earlier work
[5] = test system: bacteria of the Burkholderia genus; type: cell-based; details: all species of bacteria of the Burkholderia genus
Burkholderia cepacia [6] = details: 0.02% solution
Pseudomonas aeruginosa = details: all three groups of patients; day 10 of therapy

N=C(NCCCCCCNC(=N)NC(=N)Nc1ccc(Cl)cc1)NC(=N)Nc1ccc(Cl)cc1 [chlorhexidine bigluconate]
activity (Burkholderia cepacia [1]; Concentration 0,2%): +
activity (Burkholderia cepacia [1]; Concentration 0.02%): -
activity (Burkholderia cepacia [1]; Concentration 0.05%): -
activity (Burkholderia cepacia [1]; Concentration 0.1%): +
activity (Burkholderia multivorans; Concentration 0,2%): ++
activity (Burkholderia multivorans; Concentration 0.02%): +
activity (Burkholderia multivorans; Concentration 0.05%): +
activity (Burkholderia multivorans; Concentration 0.1%): ++
activity (Burkholderia pyrrocinia; Concentration 0,2%): +
activity (Burkholderia pyrrocinia; Concentration 0.02%): -
activity (Burkholderia pyrrocinia; Concentration 0.05%): -
activity (Burkholderia pyrrocinia; Concentration 0.1%): +
activity (Burkholderia cenocepacia; Concentration 0,2%): +
activity (Burkholderia cenocepacia; Concentration 0.02%): +
activity (Burkholderia cenocepacia; Concentration 0.05%): +
activity (Burkholderia cenocepacia; Concentration 0.1%): +
activity (Burkholderia mallei; Concentration 0,2%): +
activity (Burkholderia mallei; Concentration 0.02%): -
activity (Burkholderia mallei; Concentration 0.05%): -
activity (Burkholderia mallei; Concentration 0.1%): +
activity ([2]; Concentration 0,2%): +
activity ([2]; Concentration 0.02%): -
activity ([2]; Concentration 0.05%): +
activity ([2]; Concentration 0.1%): +
activity (Burkholderia dolosa; Concentration 0,2%): ++
activity (Burkholderia dolosa; Concentration 0.02%): +
activity (Burkholderia dolosa; Concentration 0.05%): +
activity (Burkholderia dolosa; Concentration 0.1%): ++
activity (Burkholderia gladioli; Concentration 0,2%): ++
activity (Burkholderia gladioli; Concentration 0.02%): +
activity (Burkholderia gladioli; Concentration 0.05%): +
activity (Burkholderia gladioli; Concentration 0.1%): +
activity (Burkholderia stabilis; Concentration 0,2%): +
activity (Burkholderia stabilis; Concentration 0.02%): +
activity (Burkholderia stabilis; Concentration 0.05%): +
activity (Burkholderia stabilis; Concentration 0.1%): +
activity (Burkholderia anthina; Concentration 0,2%): +
activity (Burkholderia anthina; Concentration 0.02%): -
activity (Burkholderia anthina; Concentration 0.05%): -
activity (Burkholderia anthina; Concentration 0.1%): +
activity (Burkholderia ambifaria; Concentration 0,2%): +
activity (Burkholderia ambifaria; Concentration 0.02%): -
activity (Burkholderia ambifaria; Concentration 0.05%): -
activity (Burkholderia ambifaria; Concentration 0.1%): +
activity ([3]; Concentration 0,2%): +
activity ([3]; Concentration 0.02%): -
activity ([3]; Concentration 0.05%): -
activity ([3]; Concentration 0.1%): +

CC1CCC(C(C)C)C(OC(=O)C[N+](C)(C)CCCCCCCCCC[N+](C)(C)CC(=O)OC2CC(C)CCC2C(C)C)C1 (stereo not drawn) [decamethoxine, 1,10-decamethylene-bis(N,N-dimethyl-menthoxycarbonylmethyl)ammonium dichloride]
activity (Burkholderia cepacia [1]; Concentration 0,2%): +++
activity (Burkholderia cepacia [1]; Concentration 0.02%): +
activity (Burkholderia cepacia [1]; Concentration 0.05%): ++
activity (Burkholderia cepacia [1]; Concentration 0.1%): +++
activity (Burkholderia multivorans; Concentration 0,2%): +++
activity (Burkholderia multivorans; Concentration 0.02%): +
activity (Burkholderia multivorans; Concentration 0.05%): ++
activity (Burkholderia multivorans; Concentration 0.1%): +++
activity (Burkholderia pyrrocinia; Concentration 0,2%): +++
activity (Burkholderia pyrrocinia; Concentration 0.02%): +
activity (Burkholderia pyrrocinia; Concentration 0.05%): ++
activity (Burkholderia pyrrocinia; Concentration 0.1%): +++
activity (Burkholderia cenocepacia; Concentration 0,2%): +++
activity (Burkholderia cenocepacia; Concentration 0.02%): +
activity (Burkholderia cenocepacia; Concentration 0.05%): ++
activity (Burkholderia cenocepacia; Concentration 0.1%): +++
activity (Burkholderia mallei; Concentration 0,2%): +++
activity (Burkholderia mallei; Concentration 0.02%): +
activity (Burkholderia mallei; Concentration 0.05%): ++
activity (Burkholderia mallei; Concentration 0.1%): +++
activity ([2]; Concentration 0,2%): +++
activity ([2]; Concentration 0.02%): +
activity ([2]; Concentration 0.05%): ++
activity ([2]; Concentration 0.1%): +++
activity (Burkholderia dolosa; Concentration 0,2%): +++
activity (Burkholderia dolosa; Concentration 0.02%): +
activity (Burkholderia dolosa; Concentration 0.05%): ++
activity (Burkholderia dolosa; Concentration 0.1%): +++
activity (Burkholderia gladioli; Concentration 0,2%): +++
activity (Burkholderia gladioli; Concentration 0.02%): +
activity (Burkholderia gladioli; Concentration 0.05%): ++
activity (Burkholderia gladioli; Concentration 0.1%): +++
activity (Burkholderia stabilis; Concentration 0,2%): +++
activity (Burkholderia stabilis; Concentration 0.02%): +
activity (Burkholderia stabilis; Concentration 0.05%): ++
activity (Burkholderia stabilis; Concentration 0.1%): +++
solubility in water [4]: readily soluble in water
bactericidal activity [5]: exhibits bactericidal activity
activity (Burkholderia anthina; Concentration 0,2%): +++
activity (Burkholderia anthina; Concentration 0.02%): +
activity (Burkholderia anthina; Concentration 0.05%): ++
activity (Burkholderia anthina; Concentration 0.1%): +++
activity (Burkholderia ambifaria; Concentration 0,2%): +++
activity (Burkholderia ambifaria; Concentration 0.02%): +
activity (Burkholderia ambifaria; Concentration 0.05%): ++
activity (Burkholderia ambifaria; Concentration 0.1%): +++
activity ([3]; Concentration 0,2%): +++
activity ([3]; Concentration 0.02%): +
activity ([3]; Concentration 0.05%): ++
activity ([3]; Concentration 0.1%): +++
Mean therapy time (Burkholderia cepacia [6]; ultrasonic inhalations): 7 days
negative side effects making withdrawal necessary (Burkholderia cepacia [6]; ultrasonic inhalations): No patients had negative side effects
patients with positive effect after decamethoxine therapy (Burkholderia cepacia [6]; ultrasonic inhalations): 41%
patients with body temperature normalized (Burkholderia cepacia [6]; ultrasonic inhalations 5-20 ml 1-2 times daily, days 3-5): 75%
tolerance to the therapy (Burkholderia cepacia [6]; ultrasonic inhalations, all patients): Good tolerance
patients with persistent cough (Burkholderia cepacia [6]; ultrasonic inhalations, days 3-5, character changed from "strong" to "moderate" or "weak"): 75%
patients in whom dyspnea persisted (Burkholderia cepacia [6]; ultrasonic inhalations, days 3-5, characterized as "insignificant"): 30%
patients complaining of moderate cough (Burkholderia cepacia [6]; ultrasonic inhalations, days 7-10): 14%
cases in which fine moist rales were heard (Burkholderia cepacia [6]; ultrasonic inhalations, physical examination): 43%
clinical outcome (clinical, laboratory and functional indices) (Pseudomonas aeruginosa): the patients were cured
